# Test results as given in BindingDB's records for doi:10.1016/j.bmcl.2012.05.078 (University of Milan, 2012).
# Experiment: Inhibition of Met-triggered cell scattering in HGF-stimulated MDCK cells preincubated for overnight before HGF challenge measured after 24 to 48 hrs
row,IC50,SMILES
1,200 nM,O=C(Cc1cc(C(F)(F)F)cc(C(F)(F)F)c1)N[C@H](Cc1ccccc1)C(=O)Nc1ccc(-c2cn3c(n2)sc2ccccc23)cc1
2,200 nM,O=C(Cc1cc(C(F)(F)F)cc(C(F)(F)F)c1)N[C@@H](Cc1ccccc1)C(=O)Nc1ccc(-c2cn3c(n2)sc2ccccc23)cc1
3,200 nM,"Cc1[nH]c(/C=C2\C(=O)Nc3ccc(S(=O)(=O)N(C)c4cccc(Cl)c4)cc32)c(C)c1C(=O)N1CCN(C)CC1 [(3Z)-N-(3-CHLOROPHENYL)-3-({3,5-DIMETHYL-4-[(4-METHYLPIPERAZIN-1-YL)CARBONYL]-1H-PYRROL-2-YL}METHYLENE)-N-METHYL-2-OXOINDOLINE-5-SULFONAMIDE]"
4,600 nM,O=C(Cc1cc(C(F)(F)F)cc(C(F)(F)F)c1)NC(Cc1ccccc1)c1cn(-c2ccc(-c3cn4c(n3)sc3ccccc34)cc2)nn1 (centres undefined)
